In patent publication US8415469B2, “Compounds and methods for kinase modulation, and indications therefor” (Plexxikon Inc., priority 2005, dated 2013):

Tests used:
Assay type in all cases: biochemical
B-Raf V600E = molecular target: T1, B-Raf V600E (Homo sapiens, UniProt P15056, V600E); assay: AlphaScreen kinase assay, B-Raf V600E; details: read-out: IC50, activity toward kinase B-Raf V600E
T1 construct: P4254. pFastBacBD-CDC37 BRAF D437-K722-X, V600E; His6 with pFastBac HT leader (TEV site) (N); made in house; host or cells: Sf9 (baculovirus; chaperone CDC37 co-expressed)
T1 sequence (P15056 with tags, fused parts or gaps V600E): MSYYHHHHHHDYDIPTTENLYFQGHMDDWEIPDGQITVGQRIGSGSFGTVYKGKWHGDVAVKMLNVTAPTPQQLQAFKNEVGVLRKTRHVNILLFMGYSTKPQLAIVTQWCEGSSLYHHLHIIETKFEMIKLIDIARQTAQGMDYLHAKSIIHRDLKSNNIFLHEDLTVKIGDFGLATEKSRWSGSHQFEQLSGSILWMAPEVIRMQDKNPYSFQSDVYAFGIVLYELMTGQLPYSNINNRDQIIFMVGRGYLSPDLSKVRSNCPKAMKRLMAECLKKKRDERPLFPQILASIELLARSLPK

EphB2 = molecular target: T2, EphB2 (Homo sapiens, UniProt P29323); assay: Z'-Lyte FRET kinase assay (Invitrogen), EphB2; details: read-out: IC50, activity toward kinase EphB2
T2 construct: purchased Invitrogen (assay run by Invitrogen)
T2 sequence (P29323 19-1055): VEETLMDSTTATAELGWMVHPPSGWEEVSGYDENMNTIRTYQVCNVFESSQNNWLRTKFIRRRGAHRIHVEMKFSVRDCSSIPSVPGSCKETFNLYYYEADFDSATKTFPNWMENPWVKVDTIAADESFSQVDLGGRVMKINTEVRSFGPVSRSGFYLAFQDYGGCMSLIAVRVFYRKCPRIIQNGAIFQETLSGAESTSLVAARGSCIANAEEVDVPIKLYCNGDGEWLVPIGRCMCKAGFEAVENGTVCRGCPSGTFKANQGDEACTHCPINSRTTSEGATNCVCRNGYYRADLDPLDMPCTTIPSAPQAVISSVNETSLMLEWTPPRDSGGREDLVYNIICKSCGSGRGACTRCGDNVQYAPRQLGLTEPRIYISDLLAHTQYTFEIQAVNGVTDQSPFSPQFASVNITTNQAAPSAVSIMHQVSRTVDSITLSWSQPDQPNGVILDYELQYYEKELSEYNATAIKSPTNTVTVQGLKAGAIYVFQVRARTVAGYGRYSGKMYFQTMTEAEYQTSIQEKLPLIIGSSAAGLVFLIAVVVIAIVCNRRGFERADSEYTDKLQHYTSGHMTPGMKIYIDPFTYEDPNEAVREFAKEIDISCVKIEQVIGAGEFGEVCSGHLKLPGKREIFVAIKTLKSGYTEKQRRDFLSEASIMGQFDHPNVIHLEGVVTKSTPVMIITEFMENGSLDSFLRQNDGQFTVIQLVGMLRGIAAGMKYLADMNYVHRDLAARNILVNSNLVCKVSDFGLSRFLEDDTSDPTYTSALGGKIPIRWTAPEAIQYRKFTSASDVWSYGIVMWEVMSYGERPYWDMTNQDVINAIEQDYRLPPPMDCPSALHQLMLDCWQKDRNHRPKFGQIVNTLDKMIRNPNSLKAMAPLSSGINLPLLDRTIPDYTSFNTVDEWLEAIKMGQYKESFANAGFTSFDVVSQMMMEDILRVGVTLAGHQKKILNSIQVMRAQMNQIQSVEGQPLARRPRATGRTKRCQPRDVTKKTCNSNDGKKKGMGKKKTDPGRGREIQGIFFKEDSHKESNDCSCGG
Excerpt: The effect of potential modulators of kinase activity can be measured in a variety of different assays known in the art. For example, direct radiometric, indirect FRET or AlphaScreen assays may be used to assess the level of phosphorylation of a substrate in the presence of test compounds in order to determine the inhibitory affect of the compound on the kinase. Invitrogen (Carlsbad, Calif.) uses a FRET based assay for Btk, EGFR, EphB2, Flt3, lrak4, Kdr, MAP2K1, MAPKAPK2, PDGFRB, PKC theta, Stk6 and Yes. For these assays, compounds of the invention were screened by Invitrogen using Z′-Lyte™ kinase assay.
Briefly, the Invitrogen kinase assay involves use of a specific peptide substrate optimized for each kinase, containing a fluorophore at each end that make up the FRET pair. The peptide sensitivity to proteolytic cleavage depends on phosphorylation of the peptide. Non-phosphorylated peptide is cleaved by a protease while peptide phosphorylated by the kinase is not cleaved. Cleavage of the peptide disrupts the FRET between the donor (coumarin) and acceptor (fluorescein) fluorophores, resulting in an increase in the ratio of donor emission to acceptor emission. The emission ratio of coumarin to fluorescein is used to assess the reaction progress. The extent of phosphorylation is determined from the emission ratio, which is low when the kinase is active (phosphorylated peptide is not cleaved, FRET pair connected) or higher for inhibited kinase (non-phosphorylated peptide is cleaved, FRET pair separated). Thus, the assay involves a kinase reaction in the presence of varying concentrations of a given compound, a development reaction with site specific protease, and detection of the fluorescent emission ratio of coumarin and fluorscein. […] Reaction conditions for each kinase are determined to provide optimal reaction times, incubation temperature, kinase and ATP concentrations. Test samples are made up in 1× kinase buffer (50 mM HEPES pH 7.5, 50 mM MgCl2, 5 mM EGTA, 0.05% BRIJ-35) and compound at desired concentration prepared in DMSO such that the final DMSO is 1%. […] Typically, assay plates are prepared to 10 μl final volume per sample, adding 2.5 μl of compound at 4× the desired concentration in 4% DMSO (serial dilution of compound provides concentration curve), 5 μl of the desired kinase mixed with Z′-LYTE™ peptide substrate (2× in 2× kinase buffer, final peptide at 2 μM), and 2.5 μl of 4×ATP solution. All kinase except for MAP2K1 were at 10 μM ATP in the kinase reaction, while MAP2K1 was at 100 μM. Samples are mixed and the kinase reaction is incubated 1 hour at room temperature, after which 5 μl of development solution is added and mixed. After incubation for another 1 hour at room temperature, 5 μl of stop reagent is added to each sample and mixed. The fluorescence signals are measured to determine the emission ratio.

Yes = molecular target: T3, Yes (Homo sapiens, UniProt P07947); assay: Z'-Lyte FRET kinase assay (Invitrogen), Yes; details: read-out: IC50, activity toward kinase Yes
T3 construct: purchased Invitrogen (Carlsbad, Calif.), screening service
T3 sequence (P07947 whole entry): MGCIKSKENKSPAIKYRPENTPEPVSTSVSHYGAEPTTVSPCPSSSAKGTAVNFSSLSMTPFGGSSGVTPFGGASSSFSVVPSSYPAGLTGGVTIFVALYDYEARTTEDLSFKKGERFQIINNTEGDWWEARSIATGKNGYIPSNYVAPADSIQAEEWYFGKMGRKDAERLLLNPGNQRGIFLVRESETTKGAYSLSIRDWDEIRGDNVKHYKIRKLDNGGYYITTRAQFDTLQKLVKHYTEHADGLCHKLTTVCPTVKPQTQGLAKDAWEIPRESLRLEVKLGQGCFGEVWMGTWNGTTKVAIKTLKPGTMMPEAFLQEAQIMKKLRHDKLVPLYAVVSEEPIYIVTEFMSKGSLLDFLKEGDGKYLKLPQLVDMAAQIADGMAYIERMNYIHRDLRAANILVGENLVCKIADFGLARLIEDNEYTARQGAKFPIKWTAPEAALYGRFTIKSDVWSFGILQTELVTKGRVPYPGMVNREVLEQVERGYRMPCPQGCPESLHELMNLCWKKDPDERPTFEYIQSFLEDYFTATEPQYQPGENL
Method in brief: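 Read-out is the coumarin-to-fluorescein emission ratio, which rises when unphosphorylated peptide is cleaved by the development protease. Reactions contain serially diluted compound, 2 μM peptide and 10 μM ATP and run for 1 h at room temperature before 1 h development.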

Ret = molecular target: T4, Ret (Homo sapiens, UniProt P07949); assay: AlphaScreen kinase assay, Ret; details: read-out: IC50, activity toward kinase Ret
T4 construct: P1378.pET-SF BI-PTP RET H661-R1012 HIS; made in house
T4 sequence (P07949 with tags, fused parts or gaps): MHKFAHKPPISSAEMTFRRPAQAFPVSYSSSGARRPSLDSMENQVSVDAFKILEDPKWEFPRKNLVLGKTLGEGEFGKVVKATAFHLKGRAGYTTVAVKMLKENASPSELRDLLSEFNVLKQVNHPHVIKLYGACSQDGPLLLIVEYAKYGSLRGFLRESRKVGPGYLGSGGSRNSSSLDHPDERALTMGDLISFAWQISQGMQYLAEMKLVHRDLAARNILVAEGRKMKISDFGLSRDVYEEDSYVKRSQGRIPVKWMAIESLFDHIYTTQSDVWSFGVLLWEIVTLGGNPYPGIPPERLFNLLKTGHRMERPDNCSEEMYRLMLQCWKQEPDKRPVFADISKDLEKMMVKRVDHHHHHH

Abl = molecular target: T5, Abl (Homo sapiens, UniProt P00519); assay: AlphaScreen kinase assay, Abl; details: read-out: activity toward kinase Abl, IC50
T5 construct: P1121. pET-SPEC BI-PTP Abl G227-V515-X; His6 (N); made in house; host or cells: E. coli (PTP1B co-expressed)
T5 sequence (P00519 with tags, fused parts or gaps): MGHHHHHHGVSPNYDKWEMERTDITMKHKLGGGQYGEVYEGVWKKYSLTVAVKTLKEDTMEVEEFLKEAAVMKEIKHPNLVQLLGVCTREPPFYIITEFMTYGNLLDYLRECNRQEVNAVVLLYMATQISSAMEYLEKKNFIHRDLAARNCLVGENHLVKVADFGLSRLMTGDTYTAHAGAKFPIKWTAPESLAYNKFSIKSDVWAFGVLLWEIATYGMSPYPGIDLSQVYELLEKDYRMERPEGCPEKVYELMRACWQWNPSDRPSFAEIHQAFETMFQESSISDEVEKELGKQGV
Excerpt: AlphaScreen assay was used to screen additional kinases. The assay is similarly dependent on the phosphorylation of a peptide substrate. In this assay, an antibody that recognizes phosphorylated substrate is bound to an acceptor bead. The peptide substrate is attached to biotin, which binds to a donor head that contains streptavidin. Thus phosphorylated substrate is bound by antibody and streptavidin, bringing the donor and acceptor heads into close proximity when kinase is not inhibited. The donor produces singlet oxygen which results in emission from the acceptor when they are in close proximity. Conversely, when kinase is inhibited, the donor and acceptor beads are not associated and the emission from the acceptor is reduced.
AlphaScreen assays were done using compounds dissolved in DMSO to a concentration of 20 mM. The compounds were diluted accordingly to the desired final concentrations in each sample well, using 1:3 serial dilution for a total of 8 concentration points.

Fak = molecular target: T6, Fak (Homo sapiens, UniProt Q05397); assay: AlphaScreen kinase assay, Fak; details: read-out: IC50, activity toward kinase Fak
T6 construct: P1358.pFastBacHtb FAK S411-Q686-X; His6 with pFastBacHTb leader (TEV site) (N); made in house; host or cells: Sf9 (baculovirus)
T6 sequence (Q05397 411-686): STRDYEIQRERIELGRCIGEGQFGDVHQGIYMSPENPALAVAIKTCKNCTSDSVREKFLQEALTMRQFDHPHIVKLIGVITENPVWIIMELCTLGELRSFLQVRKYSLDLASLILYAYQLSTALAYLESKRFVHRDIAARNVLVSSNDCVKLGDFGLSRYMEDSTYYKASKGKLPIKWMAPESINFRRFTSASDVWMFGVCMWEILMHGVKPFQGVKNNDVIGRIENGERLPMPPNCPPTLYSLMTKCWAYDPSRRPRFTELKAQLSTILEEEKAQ

Jnk3 = molecular target: T7, Jnk3 (Homo sapiens, UniProt P53779); assay: AlphaScreen kinase assay, Jnk3; details: read-out: IC50, activity toward kinase Jnk3
T7 construct: purchased Upstate Biotechnology
T7 sequence (P53779 whole entry): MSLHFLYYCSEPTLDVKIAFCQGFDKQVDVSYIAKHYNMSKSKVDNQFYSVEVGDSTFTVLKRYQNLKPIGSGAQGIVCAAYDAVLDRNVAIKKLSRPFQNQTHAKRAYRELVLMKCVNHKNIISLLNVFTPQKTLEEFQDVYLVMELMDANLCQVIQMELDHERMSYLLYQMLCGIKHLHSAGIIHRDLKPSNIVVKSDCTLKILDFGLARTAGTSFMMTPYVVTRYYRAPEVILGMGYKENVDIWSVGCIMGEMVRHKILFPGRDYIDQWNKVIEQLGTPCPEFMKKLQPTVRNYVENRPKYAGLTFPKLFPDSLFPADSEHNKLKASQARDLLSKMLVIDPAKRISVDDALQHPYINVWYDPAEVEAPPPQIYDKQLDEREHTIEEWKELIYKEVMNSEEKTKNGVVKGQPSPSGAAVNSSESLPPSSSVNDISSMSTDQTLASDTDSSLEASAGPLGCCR

Met = molecular target: T8, Met (Homo sapiens, UniProt P08581); assay: AlphaScreen kinase assay, Met; details: read-out: IC50, activity toward kinase Met
T8 construct: P1818.pETN6 BI-PTP MET G1056-G1364-X WT; His6 (N); made in house; host or cells: E. coli (PTP1B co-expressed)
T8 sequence (P08581 with tags, fused parts or gaps): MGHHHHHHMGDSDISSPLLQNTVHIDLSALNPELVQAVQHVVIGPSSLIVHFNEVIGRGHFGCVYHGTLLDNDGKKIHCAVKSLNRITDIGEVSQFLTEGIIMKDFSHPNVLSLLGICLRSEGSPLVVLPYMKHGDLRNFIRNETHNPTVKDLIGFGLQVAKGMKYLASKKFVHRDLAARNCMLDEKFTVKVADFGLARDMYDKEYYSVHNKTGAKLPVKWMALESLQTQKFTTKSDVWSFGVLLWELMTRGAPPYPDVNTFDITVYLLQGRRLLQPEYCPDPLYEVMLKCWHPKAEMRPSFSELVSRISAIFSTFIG
Method in brief: (§1)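 Biotinylated peptide substrate phosphorylation detected by AlphaScreen with phospho-specific antibody acceptor beads and streptavidin donor beads. Compounds tested as 8-point 1:3 serial dilutions from 20 mM DMSO stocks.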

Zap70 = molecular target: T9, Zap70 (Homo sapiens, UniProt P43403); assay: AlphaScreen kinase assay, Zap70; details: read-out: IC50, activity toward kinase Zap70
T9 construct: P1868.pFastBac1 ZAP70 D327-G606 HIS, WT; His7 (HHHHHHH) (C); made in house
T9 sequence (P43403 with tags, fused parts or gaps): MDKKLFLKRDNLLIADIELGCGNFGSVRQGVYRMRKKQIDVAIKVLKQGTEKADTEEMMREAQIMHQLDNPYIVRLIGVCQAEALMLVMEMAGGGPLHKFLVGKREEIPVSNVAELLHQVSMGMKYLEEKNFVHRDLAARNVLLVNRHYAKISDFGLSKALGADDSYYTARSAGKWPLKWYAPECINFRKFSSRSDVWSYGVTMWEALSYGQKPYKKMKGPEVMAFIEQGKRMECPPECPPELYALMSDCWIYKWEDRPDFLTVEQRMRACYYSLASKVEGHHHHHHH
Method in brief: as §1

FGFR1 = molecular target: T10, FGFR1 (Homo sapiens, UniProt P11362, C488A/C584S); assay: AlphaScreen kinase assay, FGFR1; details: read-out: IC50, activity toward kinase FGFR
T10 construct: P1351.pET N6 BI-PTP FGFR A458-E765-X C488A, C584S; made in house; host or cells: E. coli (PTP1B co-expressed)
T10 sequence (P11362 458-765 C488A/C584S): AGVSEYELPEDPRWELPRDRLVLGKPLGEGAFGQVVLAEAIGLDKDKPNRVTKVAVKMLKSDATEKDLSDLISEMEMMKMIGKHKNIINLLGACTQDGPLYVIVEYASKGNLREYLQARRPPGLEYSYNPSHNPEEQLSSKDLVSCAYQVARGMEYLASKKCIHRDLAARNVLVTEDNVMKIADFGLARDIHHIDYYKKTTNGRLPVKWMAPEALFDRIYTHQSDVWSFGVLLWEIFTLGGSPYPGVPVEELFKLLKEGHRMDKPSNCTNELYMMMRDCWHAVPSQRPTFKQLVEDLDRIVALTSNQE

Flt1 = molecular target: T11, Flt1 (Homo sapiens, UniProt P17948); assay: AlphaScreen kinase assay, Flt1; details: read-out: IC50, activity toward kinase Flt1
T11 construct: P1826.pETN6 BI-PTP FLT1 M799-D1165-X WT; His6 (N); made in house; host or cells: E. coli (PTP1B co-expressed)
T11 sequence (P17948 with tags, fused parts or gaps): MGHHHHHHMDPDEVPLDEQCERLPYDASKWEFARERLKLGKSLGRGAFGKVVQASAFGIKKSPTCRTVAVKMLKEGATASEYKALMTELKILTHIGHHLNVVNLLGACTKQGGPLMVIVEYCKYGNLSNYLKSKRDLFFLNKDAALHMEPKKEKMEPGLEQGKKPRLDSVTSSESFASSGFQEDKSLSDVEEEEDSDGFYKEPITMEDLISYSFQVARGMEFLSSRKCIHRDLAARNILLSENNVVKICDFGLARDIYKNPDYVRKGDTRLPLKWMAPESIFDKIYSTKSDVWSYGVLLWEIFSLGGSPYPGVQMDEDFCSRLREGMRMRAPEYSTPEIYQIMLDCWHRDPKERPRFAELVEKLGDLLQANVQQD

Kdr = molecular target: T12, Kdr (Homo sapiens, UniProt P35968); assay: Z'-Lyte FRET kinase assay (Invitrogen), Kdr; details: read-out: IC50, activity toward kinase Kdr
T12 construct: purchased Invitrogen (assay run by Invitrogen)
T12 sequence (P35968 20-1356): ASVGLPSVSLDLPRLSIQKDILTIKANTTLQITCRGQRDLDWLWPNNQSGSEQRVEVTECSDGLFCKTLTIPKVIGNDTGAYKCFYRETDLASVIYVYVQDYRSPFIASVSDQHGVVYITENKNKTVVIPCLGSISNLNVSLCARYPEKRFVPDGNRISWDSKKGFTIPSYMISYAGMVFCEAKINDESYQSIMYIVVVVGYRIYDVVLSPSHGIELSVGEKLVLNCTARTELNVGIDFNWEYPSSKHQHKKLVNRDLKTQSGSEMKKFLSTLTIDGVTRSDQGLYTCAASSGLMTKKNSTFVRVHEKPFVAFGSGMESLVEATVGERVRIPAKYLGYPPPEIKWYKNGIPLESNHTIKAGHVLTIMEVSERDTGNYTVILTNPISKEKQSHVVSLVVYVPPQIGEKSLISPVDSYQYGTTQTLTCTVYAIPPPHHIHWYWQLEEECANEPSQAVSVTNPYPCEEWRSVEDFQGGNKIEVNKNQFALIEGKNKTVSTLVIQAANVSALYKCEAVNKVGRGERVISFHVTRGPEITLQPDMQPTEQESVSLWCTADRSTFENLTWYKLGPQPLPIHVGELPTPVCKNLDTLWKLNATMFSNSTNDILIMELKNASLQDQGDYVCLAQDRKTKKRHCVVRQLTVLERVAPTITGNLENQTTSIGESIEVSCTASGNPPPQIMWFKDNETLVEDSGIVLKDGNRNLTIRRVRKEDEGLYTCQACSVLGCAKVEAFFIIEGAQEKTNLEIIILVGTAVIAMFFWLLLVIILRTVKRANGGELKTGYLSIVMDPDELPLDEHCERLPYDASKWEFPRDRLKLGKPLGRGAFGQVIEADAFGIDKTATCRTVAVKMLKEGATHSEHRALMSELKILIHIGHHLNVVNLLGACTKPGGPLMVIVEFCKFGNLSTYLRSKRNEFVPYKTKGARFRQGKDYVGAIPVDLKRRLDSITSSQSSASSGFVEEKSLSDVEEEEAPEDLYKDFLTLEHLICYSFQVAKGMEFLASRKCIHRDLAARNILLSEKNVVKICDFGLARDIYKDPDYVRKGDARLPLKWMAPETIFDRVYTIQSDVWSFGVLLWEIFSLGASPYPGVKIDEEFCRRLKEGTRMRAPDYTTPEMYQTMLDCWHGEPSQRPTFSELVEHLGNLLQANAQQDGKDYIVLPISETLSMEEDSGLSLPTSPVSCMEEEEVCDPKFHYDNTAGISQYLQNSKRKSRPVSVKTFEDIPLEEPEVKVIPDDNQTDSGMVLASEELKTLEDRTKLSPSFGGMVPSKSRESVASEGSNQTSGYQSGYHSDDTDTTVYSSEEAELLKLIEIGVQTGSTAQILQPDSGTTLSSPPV

Pyk2 = molecular target: T13, Pyk2 (Homo sapiens, UniProt Q14289); assay: AlphaScreen kinase assay, Pyk2; details: read-out: IC50, activity toward kinase Pyk2
T13 construct: purchased Upstate Biotechnology
T13 sequence (Q14289 whole entry): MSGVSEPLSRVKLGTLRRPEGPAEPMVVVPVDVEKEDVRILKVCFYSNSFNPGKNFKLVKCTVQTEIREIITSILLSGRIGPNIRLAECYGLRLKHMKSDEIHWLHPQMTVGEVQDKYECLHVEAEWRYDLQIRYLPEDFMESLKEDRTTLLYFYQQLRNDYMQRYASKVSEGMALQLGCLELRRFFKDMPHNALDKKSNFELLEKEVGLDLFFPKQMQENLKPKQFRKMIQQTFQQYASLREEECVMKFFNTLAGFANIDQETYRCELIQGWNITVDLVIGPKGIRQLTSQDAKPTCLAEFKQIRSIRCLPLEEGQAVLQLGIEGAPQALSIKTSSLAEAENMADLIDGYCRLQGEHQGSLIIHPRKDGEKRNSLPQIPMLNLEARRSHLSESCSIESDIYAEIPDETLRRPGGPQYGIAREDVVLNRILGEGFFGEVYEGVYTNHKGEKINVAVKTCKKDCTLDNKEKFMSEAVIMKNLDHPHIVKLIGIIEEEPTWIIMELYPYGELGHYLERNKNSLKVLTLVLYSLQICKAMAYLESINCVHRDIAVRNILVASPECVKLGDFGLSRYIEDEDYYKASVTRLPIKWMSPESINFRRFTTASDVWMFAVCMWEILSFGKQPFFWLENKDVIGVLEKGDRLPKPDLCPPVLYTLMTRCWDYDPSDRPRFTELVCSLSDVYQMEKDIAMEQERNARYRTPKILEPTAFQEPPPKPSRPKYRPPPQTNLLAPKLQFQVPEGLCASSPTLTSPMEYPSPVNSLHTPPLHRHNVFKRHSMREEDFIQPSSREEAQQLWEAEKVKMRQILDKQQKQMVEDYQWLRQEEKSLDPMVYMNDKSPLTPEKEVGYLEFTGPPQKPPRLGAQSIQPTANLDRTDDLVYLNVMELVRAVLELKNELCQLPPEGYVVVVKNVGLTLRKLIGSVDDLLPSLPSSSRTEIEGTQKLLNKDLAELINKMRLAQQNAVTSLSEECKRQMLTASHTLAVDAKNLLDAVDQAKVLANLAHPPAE

Src = molecular target: T14, Src (Homo sapiens, UniProt P12931); assay: AlphaScreen kinase assay, Src; details: read-out: IC50, activity toward kinase Src
T14 construct: P1144. pET-N6 BI-PTP SRC V86-L536-X; made in house
T14 sequence (P12931 with tags, fused parts or gaps): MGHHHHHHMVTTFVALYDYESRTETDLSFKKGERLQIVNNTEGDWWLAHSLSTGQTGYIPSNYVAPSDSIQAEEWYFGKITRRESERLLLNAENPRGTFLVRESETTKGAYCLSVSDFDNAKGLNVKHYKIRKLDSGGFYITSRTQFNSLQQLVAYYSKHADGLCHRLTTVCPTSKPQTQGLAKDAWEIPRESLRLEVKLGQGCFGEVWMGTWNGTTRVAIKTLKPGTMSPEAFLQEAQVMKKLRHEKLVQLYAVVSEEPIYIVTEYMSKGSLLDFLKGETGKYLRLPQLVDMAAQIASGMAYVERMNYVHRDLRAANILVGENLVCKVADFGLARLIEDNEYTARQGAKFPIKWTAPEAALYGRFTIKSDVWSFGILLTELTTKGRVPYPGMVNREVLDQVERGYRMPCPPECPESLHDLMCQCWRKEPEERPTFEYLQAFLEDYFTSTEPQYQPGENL

IC50 (B-Raf V600E) [µM]	IC50 (EphB2) [µM]	IC50 (Yes) [µM]	IC50 (Ret) [µM]	IC50 (Abl) [µM]	IC50 (Fak) [µM]	IC50 (Jnk3) [µM]	IC50 (Met) [µM]	IC50 (Zap70) [µM]	IC50 (FGFR1) [µM]	IC50 (Flt1) [µM]	IC50 (Kdr) [µM]	IC50 (Pyk2) [µM]	IC50 (Src) [µM]	SMILES
≤ 10	≤ 10	≤ 10	–	–	–	–	–	–	–	–	–	–	–	O=C(c1ccccc1F)c1c[nH]c2nccc(-c3cccnc3)c12 [Compound P-0062]
≤ 10	≤ 10	–	≤ 10	–	–	–	–	–	–	–	–	–	–	CC(=O)Nc1cccc(-c2ccnc3[nH]cc(C(=O)c4cccc(Cl)c4Cl)c23)c1 [Compound P-0186]
–	–	–	≤ 10	≤ 10	≤ 10	≤ 10	≤ 10	≤ 10	–	–	–	–	–	CS(=O)(=O)CCNC(=O)c1ccc(S(=O)(=O)NCc2c[nH]c3ncccc23)cc1 [Compound P-0675]
≤ 10	–	–	≤ 10	≤ 10	–	≤ 10	≤ 10	≤ 10	≤ 10	≤ 10	≤ 10	≤ 10	≤ 10	O=S(=O)(NCc1c[nH]c2ncccc12)c1ccsc1 [Compound P-0320]
